How the values were obtained:
Assay in all cases: DiscoverX KINOMEscan kinase profiling (468 assays)
Type in all cases: binding
human kinome [1] = molecular target: human kinome (Homo sapiens, UniProt Q5VT25); settings: MRCKA (Entrez CDC42BPA); 100 nM; read-out: Percent Control
Procedure, shortened: (§1)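 DNA-tagged kinases competed for immobilized biotinylated ligands on streptavidin magnetic beads, with bound kinase quantified by qPCR. VIP152 in DMSO was tested against a DMSO control.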

human kinome [2] = molecular target: human kinome (Homo sapiens, UniProt P36507); settings: MEK2 (Entrez MAP2K2); 100 nM; read-out: Percent Control
Procedure, shortened: as §1

human kinome [3] = molecular target: human kinome (Homo sapiens, UniProt Q9UF33); settings: EPHA6; 100 nM; read-out: Percent Control
Procedure, shortened: as §1

human kinome [4] = molecular target: human kinome (Homo sapiens, UniProt Q9BX84); settings: kinase TRPM6 (Entrez TRPM6); compound concentration 1000 nM; read-out: Percent Control
Procedure, shortened: as §1

human kinome [5] = molecular target: human kinome (Homo sapiens, UniProt Q92772); settings: CDKL2; 100 nM; read-out: Percent Control
Procedure, shortened: as §1

human kinome [6] = molecular target: human kinome (Homo sapiens, UniProt Q9C098); settings: DCAMKL3 (Entrez DCLK3); 100 nM; read-out: Percent Control
Procedure, shortened: as §1

human kinome [7] = molecular target: human kinome (Homo sapiens, UniProt P42336, M1043I); settings: read-out: Percent Control
Procedure, shortened: as §1

human kinome [8] = molecular target: human kinome (Homo sapiens, UniProt Q9Y243); settings: AKT3; 100 nM; read-out: Percent Control
Procedure, shortened: as §1

human kinome [9] = molecular target: human kinome (Homo sapiens, UniProt Q14164); settings: IKK-epsilon (Entrez IKBKE); 100 nM; read-out: Percent Control
Procedure, shortened: as §1

human kinome [10] = molecular target: human kinome (Homo sapiens, UniProt Q06418); settings: kinase TYRO3 (Entrez TYRO3); compound concentration 1000 nM; read-out: Percent Control
Procedure, shortened: as §1

human kinome [11] = molecular target: human kinome (Homo sapiens, UniProt O94768); settings: DRAK2 (Entrez STK17B); 100 nM; read-out: Percent Control
Procedure, shortened: as §1

human kinome [12] = molecular target: human kinome (Homo sapiens, UniProt P80192); settings: MLK1 (Entrez MAP3K9); 100 nM; read-out: Percent Control
Procedure, shortened: as §1

human kinome [13] = molecular target: human kinome (Homo sapiens, UniProt Q9BVS4); settings: kinase RIOK2 (Entrez RIOK2); compound concentration 1000 nM; read-out: Percent Control
Procedure, shortened: as §1

human kinome [14] = molecular target: human kinome (Homo sapiens, UniProt Q14680); settings: MELK; 100 nM; read-out: Percent Control
Procedure, shortened: as §1

human kinome [15] = molecular target: human kinome (Homo sapiens, UniProt P31751); settings: AKT2; 100 nM; read-out: Percent Control
Procedure, shortened: as §1

human kinome [16] = molecular target: human kinome (Homo sapiens, UniProt Q86V86); settings: read-out: Percent Control
Procedure, shortened: as §1

human kinome [17] = molecular target: human kinome (Homo sapiens, UniProt Q96GD4); settings: AURKB; 100 nM; read-out: Percent Control
Procedure, shortened: as §1

human kinome [18] = molecular target: human kinome (Homo sapiens, UniProt Q8TDX7); settings: read-out: Percent Control
Procedure, shortened: as §1

human kinome [19] = molecular target: human kinome (Homo sapiens, UniProt Q07912); settings: kinase TNK2 (Entrez TNK2); compound concentration 1000 nM; read-out: Percent Control
Procedure, shortened: as §1

human kinome [20] = molecular target: human kinome (Homo sapiens, UniProt P53778); settings: read-out: Percent Control
Procedure, shortened: as §1

human kinome [21] = molecular target: human kinome (Homo sapiens, UniProt O00238); settings: BMPR1B; 100 nM; read-out: Percent Control
Procedure, shortened: as §1

human kinome [22] = molecular target: human kinome (Homo sapiens, UniProt Q00537); settings: read-out: Percent Control
Procedure, shortened: as §1

human kinome [23] = molecular target: human kinome (Homo sapiens, UniProt Q9BWU1); settings: CDK11 (Entrez CDK19); 100 nM; read-out: Percent Control
Procedure, shortened: as §1

human kinome [24] = molecular target: human kinome (Homo sapiens, UniProt P15056, V600E); settings: BRAF(V600E); 100 nM; read-out: Percent Control
Procedure, shortened: as §1

human kinome [25] = molecular target: human kinome (Homo sapiens, UniProt P42336, E545K); settings: read-out: Percent Control
Procedure, shortened: as §1

human kinome [26] = molecular target: human kinome (Homo sapiens, UniProt P00533); settings: EGFR; 100 nM; read-out: Percent Control
Procedure, shortened: as §1

human kinome [27] = molecular target: human kinome (Homo sapiens, UniProt Q6P3R8); settings: read-out: Percent Control
Procedure, shortened: as §1

human kinome [28] = molecular target: human kinome (Homo sapiens, UniProt Q5S007, G2019S); settings: LRRK2(G2019S); 100 nM; read-out: Percent Control
Procedure, shortened: as §1

human kinome [29] = molecular target: human kinome (Homo sapiens, UniProt Q99755); settings: read-out: Percent Control
Procedure, shortened: as §1

Chain of human kinome (Homo sapiens, UniProt Q99755) (Q99755 whole entry): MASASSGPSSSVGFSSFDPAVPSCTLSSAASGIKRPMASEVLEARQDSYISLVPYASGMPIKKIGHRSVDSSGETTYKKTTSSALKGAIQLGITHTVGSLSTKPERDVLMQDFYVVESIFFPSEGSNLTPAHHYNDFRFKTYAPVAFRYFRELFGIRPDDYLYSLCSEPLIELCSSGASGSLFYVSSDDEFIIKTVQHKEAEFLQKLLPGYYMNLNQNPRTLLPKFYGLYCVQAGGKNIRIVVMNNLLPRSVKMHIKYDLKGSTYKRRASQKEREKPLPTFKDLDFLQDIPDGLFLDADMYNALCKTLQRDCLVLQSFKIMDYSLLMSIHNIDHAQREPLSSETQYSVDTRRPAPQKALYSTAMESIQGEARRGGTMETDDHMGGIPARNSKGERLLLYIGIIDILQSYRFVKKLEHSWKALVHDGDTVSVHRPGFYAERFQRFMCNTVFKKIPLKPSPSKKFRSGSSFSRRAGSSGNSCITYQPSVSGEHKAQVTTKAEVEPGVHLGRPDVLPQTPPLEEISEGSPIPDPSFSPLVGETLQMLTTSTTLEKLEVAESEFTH
Chain of human kinome (Homo sapiens, UniProt Q00537) (Q00537 whole entry): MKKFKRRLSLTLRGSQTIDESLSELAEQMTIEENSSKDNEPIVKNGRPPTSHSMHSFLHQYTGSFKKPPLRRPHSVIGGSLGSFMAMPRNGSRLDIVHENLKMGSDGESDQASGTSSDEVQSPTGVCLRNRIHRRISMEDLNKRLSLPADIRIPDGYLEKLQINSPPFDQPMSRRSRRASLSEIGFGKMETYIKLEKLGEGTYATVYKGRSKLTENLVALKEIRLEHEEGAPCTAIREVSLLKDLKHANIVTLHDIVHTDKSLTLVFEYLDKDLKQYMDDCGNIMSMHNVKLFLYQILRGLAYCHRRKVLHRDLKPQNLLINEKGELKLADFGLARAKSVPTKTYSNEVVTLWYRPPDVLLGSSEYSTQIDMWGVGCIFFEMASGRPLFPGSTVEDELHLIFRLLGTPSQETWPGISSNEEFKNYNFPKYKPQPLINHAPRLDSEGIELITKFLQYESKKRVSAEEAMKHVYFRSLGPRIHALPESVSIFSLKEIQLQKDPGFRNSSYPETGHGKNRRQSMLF
Chain of human kinome (Homo sapiens, UniProt P53778) (P53778 whole entry): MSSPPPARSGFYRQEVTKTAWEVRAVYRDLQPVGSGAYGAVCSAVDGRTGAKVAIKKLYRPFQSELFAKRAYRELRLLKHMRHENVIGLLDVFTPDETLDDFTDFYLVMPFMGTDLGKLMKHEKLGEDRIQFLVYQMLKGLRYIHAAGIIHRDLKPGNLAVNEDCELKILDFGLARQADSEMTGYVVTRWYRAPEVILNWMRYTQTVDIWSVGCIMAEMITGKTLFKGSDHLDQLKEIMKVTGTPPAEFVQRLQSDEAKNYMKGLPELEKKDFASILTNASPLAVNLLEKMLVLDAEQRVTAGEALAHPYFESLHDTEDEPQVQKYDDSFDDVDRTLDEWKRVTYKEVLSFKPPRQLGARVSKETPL
Chain of human kinome (Homo sapiens, UniProt Q6P3R8) (Q6P3R8 whole entry): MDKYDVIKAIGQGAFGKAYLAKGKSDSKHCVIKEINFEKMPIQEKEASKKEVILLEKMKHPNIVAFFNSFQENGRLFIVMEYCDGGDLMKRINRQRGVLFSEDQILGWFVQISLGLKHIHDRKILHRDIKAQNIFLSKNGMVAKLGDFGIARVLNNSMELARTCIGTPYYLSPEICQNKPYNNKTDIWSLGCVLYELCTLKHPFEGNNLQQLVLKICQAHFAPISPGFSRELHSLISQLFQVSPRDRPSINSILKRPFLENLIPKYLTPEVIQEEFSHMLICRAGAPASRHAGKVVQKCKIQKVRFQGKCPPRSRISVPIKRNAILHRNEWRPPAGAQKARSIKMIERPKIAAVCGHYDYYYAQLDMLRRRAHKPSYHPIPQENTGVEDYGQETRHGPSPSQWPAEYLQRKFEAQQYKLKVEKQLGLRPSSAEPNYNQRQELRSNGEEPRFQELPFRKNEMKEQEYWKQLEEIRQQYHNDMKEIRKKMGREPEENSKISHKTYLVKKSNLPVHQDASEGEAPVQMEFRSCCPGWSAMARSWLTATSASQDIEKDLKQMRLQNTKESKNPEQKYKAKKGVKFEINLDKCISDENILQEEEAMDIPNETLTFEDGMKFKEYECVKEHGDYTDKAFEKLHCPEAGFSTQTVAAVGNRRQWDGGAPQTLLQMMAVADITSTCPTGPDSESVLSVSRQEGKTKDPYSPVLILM
Chain of human kinome (Homo sapiens, UniProt Q8TDX7) (Q8TDX7 whole entry): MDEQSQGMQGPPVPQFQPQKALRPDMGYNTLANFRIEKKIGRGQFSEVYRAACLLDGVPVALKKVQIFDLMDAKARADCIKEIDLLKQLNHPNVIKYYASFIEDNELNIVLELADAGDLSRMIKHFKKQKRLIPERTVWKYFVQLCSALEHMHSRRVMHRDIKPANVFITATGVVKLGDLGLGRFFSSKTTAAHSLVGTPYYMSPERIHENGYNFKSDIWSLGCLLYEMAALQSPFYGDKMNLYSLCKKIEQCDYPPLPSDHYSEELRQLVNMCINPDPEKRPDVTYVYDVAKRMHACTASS
Chain of human kinome (Homo sapiens, UniProt P42336, M1043I) (P42336 whole entry M1043I): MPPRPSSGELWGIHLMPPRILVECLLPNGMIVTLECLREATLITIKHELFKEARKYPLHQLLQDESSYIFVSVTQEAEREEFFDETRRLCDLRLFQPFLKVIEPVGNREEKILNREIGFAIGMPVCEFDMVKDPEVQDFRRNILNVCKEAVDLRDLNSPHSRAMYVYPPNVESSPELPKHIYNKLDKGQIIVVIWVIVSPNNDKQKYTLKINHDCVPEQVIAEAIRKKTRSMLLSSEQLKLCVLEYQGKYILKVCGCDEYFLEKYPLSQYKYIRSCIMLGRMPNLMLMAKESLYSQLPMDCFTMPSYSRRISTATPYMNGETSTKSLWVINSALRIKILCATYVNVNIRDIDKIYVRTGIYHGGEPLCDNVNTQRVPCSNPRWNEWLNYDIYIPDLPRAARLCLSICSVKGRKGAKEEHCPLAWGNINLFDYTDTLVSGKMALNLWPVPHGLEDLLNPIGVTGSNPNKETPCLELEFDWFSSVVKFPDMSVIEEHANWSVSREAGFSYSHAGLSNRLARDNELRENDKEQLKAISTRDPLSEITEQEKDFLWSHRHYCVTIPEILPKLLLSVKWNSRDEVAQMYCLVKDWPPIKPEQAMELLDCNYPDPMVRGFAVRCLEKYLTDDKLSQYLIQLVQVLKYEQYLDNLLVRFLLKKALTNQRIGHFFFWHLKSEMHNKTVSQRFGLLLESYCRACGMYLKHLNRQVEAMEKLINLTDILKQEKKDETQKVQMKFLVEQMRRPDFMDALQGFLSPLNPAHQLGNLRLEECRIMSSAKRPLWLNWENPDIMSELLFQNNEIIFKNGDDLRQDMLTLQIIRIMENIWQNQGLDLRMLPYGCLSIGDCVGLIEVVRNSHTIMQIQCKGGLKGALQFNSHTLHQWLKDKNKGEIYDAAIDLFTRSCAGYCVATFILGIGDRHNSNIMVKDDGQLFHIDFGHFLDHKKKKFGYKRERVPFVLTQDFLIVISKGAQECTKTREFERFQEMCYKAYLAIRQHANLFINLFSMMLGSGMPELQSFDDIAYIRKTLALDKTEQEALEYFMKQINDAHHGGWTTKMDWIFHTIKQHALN
Chain of human kinome (Homo sapiens, UniProt P42336, E545K) (P42336 whole entry E545K): as the sequence (P42336 whole entry M1043I) above, with E545K, I1043M counted along it
Chain of human kinome (Homo sapiens, UniProt Q14680) (Q14680 whole entry): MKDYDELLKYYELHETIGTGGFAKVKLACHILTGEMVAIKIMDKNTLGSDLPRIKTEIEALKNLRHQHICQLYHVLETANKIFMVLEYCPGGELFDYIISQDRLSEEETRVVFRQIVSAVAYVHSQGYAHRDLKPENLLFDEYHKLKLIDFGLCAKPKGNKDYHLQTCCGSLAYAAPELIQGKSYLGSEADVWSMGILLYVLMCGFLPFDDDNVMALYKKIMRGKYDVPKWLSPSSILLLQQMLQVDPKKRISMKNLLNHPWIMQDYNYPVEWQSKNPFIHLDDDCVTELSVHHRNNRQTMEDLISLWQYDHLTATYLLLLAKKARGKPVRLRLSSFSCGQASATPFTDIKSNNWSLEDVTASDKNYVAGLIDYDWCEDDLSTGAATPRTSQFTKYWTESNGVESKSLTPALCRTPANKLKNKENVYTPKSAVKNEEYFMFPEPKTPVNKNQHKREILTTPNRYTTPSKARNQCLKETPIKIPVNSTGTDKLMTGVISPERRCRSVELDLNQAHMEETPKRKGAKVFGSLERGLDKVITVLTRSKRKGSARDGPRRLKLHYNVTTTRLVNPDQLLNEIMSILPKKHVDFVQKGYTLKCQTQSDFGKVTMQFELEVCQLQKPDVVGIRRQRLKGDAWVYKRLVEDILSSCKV
Chain of human kinome (Homo sapiens, UniProt P36507) (P36507 whole entry): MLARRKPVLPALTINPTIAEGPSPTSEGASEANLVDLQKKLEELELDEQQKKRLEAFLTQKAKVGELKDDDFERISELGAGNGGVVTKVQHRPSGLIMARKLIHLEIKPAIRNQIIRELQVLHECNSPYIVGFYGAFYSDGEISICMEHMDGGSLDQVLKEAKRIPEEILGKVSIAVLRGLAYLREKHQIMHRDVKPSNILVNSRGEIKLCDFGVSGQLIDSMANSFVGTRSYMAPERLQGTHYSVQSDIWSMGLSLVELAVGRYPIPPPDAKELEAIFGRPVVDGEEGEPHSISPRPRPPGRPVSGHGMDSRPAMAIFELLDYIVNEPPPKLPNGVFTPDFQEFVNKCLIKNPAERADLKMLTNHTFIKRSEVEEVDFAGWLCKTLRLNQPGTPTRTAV

COc1cc(F)ccc1-c1cc(Nc2cc(CS(C)(=N)=O)ccn2)ncc1F (stereo not shown) [VIP152]
remaining binding at 0.1 µM (human kinome [1]): 100%
remaining binding at 0.1 µM (human kinome [2]): 100%
remaining binding at 0.1 µM (human kinome [3]): 100%
remaining binding at 1 µM (human kinome [4]): 96%
remaining binding at 0.1 µM (human kinome [5]): 100%
remaining binding at 0.1 µM (human kinome [6]): 100%
remaining binding at 0.1 µM (human kinome [7]; PIK3CA(M1043I), 100 nM): 100%
remaining binding at 1 µM (human kinome [7]; kinase PIK3CA(M1043I) (Entrez PIK3CA), compound concentration 1000 nM): 84%
remaining binding at 0.1 µM (human kinome [8]): 100%
remaining binding at 0.1 µM (human kinome [9]): 100%
remaining binding at 1 µM (human kinome [10]): 56%
remaining binding at 0.1 µM (human kinome [11]): 100%
remaining binding at 0.1 µM (human kinome [12]): 100%
remaining binding at 1 µM (human kinome [13]): 77%
remaining binding at 0.1 µM (human kinome [14]): 91%
remaining binding at 0.1 µM (human kinome [15]): 100%
remaining binding at 0.1 µM (human kinome [16]; PIM3, 100 nM): 100%
remaining binding at 1 µM (human kinome [16]; kinase PIM3 (Entrez PIM3), compound concentration 1000 nM): 100%
remaining binding at 0.1 µM (human kinome [17]): 99%
remaining binding at 0.1 µM (human kinome [18]; NEK7, 100 nM): 100%
remaining binding at 1 µM (human kinome [18]; kinase NEK7 (Entrez NEK7), compound concentration 1000 nM): 94%
remaining binding at 1 µM (human kinome [19]): 92%
remaining binding at 1 µM (human kinome [20]; kinase p38-gamma (Entrez MAPK12), compound concentration 1000 nM): 100%
remaining binding at 0.1 µM (human kinome [20]; p38-gamma (Entrez MAPK12), 100 nM): 76%
remaining binding at 0.1 µM (human kinome [21]): 95%
remaining binding at 0.1 µM (human kinome [22]; PCTK2 (Entrez CDK17), 100 nM): 100%
remaining binding at 1 µM (human kinome [22]; kinase PCTK2 (Entrez CDK17), compound concentration 1000 nM): 54%
remaining binding at 0.1 µM (human kinome [23]): 100%
remaining binding at 0.1 µM (human kinome [24]): 100%
remaining binding at 0.1 µM (human kinome [25]; PIK3CA(E545K), 100 nM): 92%
remaining binding at 1 µM (human kinome [25]; kinase PIK3CA(E545K) (Entrez PIK3CA), compound concentration 1000 nM): 93%
remaining binding at 0.1 µM (human kinome [26]): 100%
remaining binding at 0.1 µM (human kinome [27]; NEK5, 100 nM): 100%
remaining binding at 1 µM (human kinome [27]; kinase NEK5 (Entrez NEK5), compound concentration 1000 nM): 92%
remaining binding at 0.1 µM (human kinome [28]): 100%
remaining binding at 0.1 µM (human kinome [29]; PIP5K1A, 100 nM): 90%
remaining binding at 1 µM (human kinome [29]; kinase PIP5K1A (Entrez PIP5K1A), compound concentration 1000 nM): 18%
